Assay results: US20250381243A1, “HETEROCYCLES AND USES THEREOF” (Kumquat Biosciences Inc., priority 2022, published 2025)

Test system: A549 cells
Experiment: Cell proliferation assay (CellTiter-Glo), cells with K-Ras G12S mutation
Type: cell-based
Details: Homo sapiens, 500 nM to 5 μM (mixed units), read-out: Inhibition of A549 Cells (IC50)
Procedure: A549 (ATCC CRL-185) and LS123 (ATCC CRL-255) cell lines comprise a G12S mutation and can be used to assess Ras cellular signaling in vitro, e.g., in response to treatment with a compound described herein. A549 culture medium is prepared with RPMI-1640 and 10% heat-inactivated FBS. LS123 culture medium is prepared with RPMI-1640 and 10% heat-inactivated FBS. A CellTiter-Glo (CTG) luminescent based assay (Promega) is used to assess growth of the cells, as a measurement of the ability of the compounds herein to inhibit Ras signaling in the cells. The cells (e.g., 800 per well) are seeded in their respective culture medium in standard tissue culture-treated 384-well format plates (Falcon #08-772-116) or ultra-low attachment surface 384-well format plates (S-Bio #MS-9384WZ). The day after plating, cells are treated with a dilution series (e.g., a 10 point 3-fold dilution series) of the compounds herein (e.g., approximately 40 μl final volume per well). Cell viability can be monitored (e.g., approximately 6 days later) according to the manufacturer's recommended instructions, where CellTiter-Glo reagent is added (e.g., approximately 10 μl), vigorously mixed, covered, and placed on a plate shaker (e.g., approximately for 20 min) to ensure sufficient cell lysis prior to assessment of luminescent signal. The IC50 values are determined using the four parameter fit. The resulting IC50 value is a measurement of the ability of the test compound to reduce cell growth of Ras-driven cells (e.g., tumor cell lines) in vitro and/or in vivo.

| IC50 [nM] | Structure (SMILES) |
| --- | --- |
| 500 to 5000 | CN(CC1(C)CCN1C(=O)n1cnc(Cl)n1)c1nc(OC[C@@]23CCCN2C[C@H](F)C3)nc2c(F)c(-c3ccc(F)c4sc(N)c(C#N)c34)c(Cl)cc12 (single isomer, unassigned) [Compound 183] |
| 500 to 5000 | N#CCCN(C(=O)n1cncn1)C1CCCN(c2nc(OC[C@@]34CCCN3C[C@H](F)C4)nc3c(F)c(-c4ccc(F)c5sc(N)c(C#N)c45)c(Cl)cc23)CC1 (stereo partly drawn) [Compound 166, N-(1-(7-(2-amino-3-cyano-7-fluorobenzo[b]thiophen-4-yl)-6-chloro-8-fluoro-2-(((2R,7aS)-2-fluorotetrahydro-1H-pyrrolizin-7a(5H)-yl)methoxy)quinazolin-4-yl)azepan-4-yl)-N-(2-cyanoethyl)-1H-1,2,4-triazole-1-carboxamide] |
| 500 to 5000 | CN(C(=O)n1cncn1)C1CN(c2nc(OC[C@@]34CCCN3C[C@H](F)C4)nc3c(F)c(-c4ccc(F)c5sc(N)c(C#N)c45)c(Cl)cc23)CC12CC2 (stereo partly drawn) [Compound 140, N-(5-(7-(2-amino-3-cyano-7-fluorobenzo[b]thiophen-4-yl)-6-chloro-8-fluoro-2-(((2R,7aS)-2-fluorotetrahydro-1H-pyrrolizin-7a(5H)-yl)methoxy)quinazolin-4-yl)-5-azaspiro[2.4]heptan-7-yl)-N-methyl-1H-1,2,4-triazole-1-carboxamide] |

Same assay, conditions: Homo sapiens, ≤500 nM, read-out: Inhibition of A549 Cells (IC50)

| Structure (SMILES) | IC50 [nM] |
| --- | --- |
| CC1N(C(=O)n2cncn2)CC12CCCN(c1nc(OC[C@@]34CCCN3C[C@H](F)C4)nc3c(F)c(-c4ccc(F)c5sc(N)c(C#N)c45)c(Cl)cc13)C2 (stereo partly drawn) [Compound 182, 2-amino-4-(6-chloro-8-fluoro-2-(((2R,7aS)-2-fluorotetrahydro-1H-pyrrolizin-7a(5H)-yl)methoxy)-4-(1-methyl-2-(1H-1,2,4-triazole-1-carbonyl)-2,6-diazaspiro[3.5]nonan-6-yl)quinazolin-7-yl)-7-fluorobenzo[b]thiophene-3-carbonitrile] | ≤ 500 |
| CC(C)[C@H]1N(C(=O)n2cnc(Cl)n2)C[C@@]1(C)CN(C)c1nc(OC[C@@]23CCCN2C[C@H](F)C3)nc2c(F)c(-c3ccc(F)c4sc(N)c(C#N)c34)c(Cl)cc12 [Compound 210, 2-amino-4-(6-chloro-4-((((2R,3R)-1-(3-chloro-1H-1,2,4-triazole-1-carbonyl)-2-isopropyl-3-methylazetidin-3-yl)methyl)(methyl)amino)-8-fluoro-2-(((2R,7aS)-2-fluorotetrahydro-1H-pyrrolizin-7a(5H)-yl)methoxy)quinazolin-7-yl)-7-fluorobenzo[b]thiophene-3-carbonitrile] | ≤ 500 |
| N#Cc1c(N)sc2c(F)ccc(-c3c(Cl)cc4c(N5CCCC6(C5)CN(C(=O)n5cncn5)C6C5CC5)nc(OC[C@@]56CCCN5C[C@H](F)C6)nc4c3F)c12 (stereo partly drawn) [Compound 127, 2-amino-4-(6-chloro-4-(1-cyclopropyl-2-(1H-1,2,4-triazole-1-carbonyl)-2,6-diazaspiro[3.5]nonan-6-yl)-8-fluoro-2-(((2R,7aS)-2-fluorotetrahydro-1H-pyrrolizin-7a(5H)-yl)methoxy)quinazolin-7-yl)-7-fluorobenzo[b]thiophene-3-carbonitrile] | ≤ 500 |
| CCN(C(=O)n1cnc(Cl)n1)[C@@H]1CCN(c2nc(OC[C@@]34CCCN3C[C@H](F)C4)nc3c(F)c(-c4ccc(F)c5sc(N)c(C#N)c45)c(Cl)cc23)[C@@H]1C (atropisomer, axis not shown; (aS)) [Compound 176, N-((2R,3R)-1-(7-((R)-2-amino-3-cyano-7-fluorobenzo[b]thiophen-4-yl)-6-chloro-8-fluoro-2-(((2R,7aS)-2-fluorotetrahydro-1H-pyrrolizin-7a (5H)-yl)methoxy)quinazolin-4-yl)-2-methylpyrrolidin-3-yl)-3-chloro-N-ethyl-1H-1,2,4-triazole-1-carboxamide] | ≤ 500 |
| CC(C)[C@H]1N(C(=O)n2cnc(F)n2)C[C@]12CCCN(c1nc(OC[C@@]34CCCN3C[C@H](F)C4)nc3c(F)c(-c4ccc(F)c5sc(N)c(C#N)c45)c(Cl)cc13)C2 [Compound 184, 2-amino-4-(6-chloro-8-fluoro-4-((1R,4R)-2-(3-fluoro-1H-1,2,4-triazole-1-carbonyl)-1-isopropyl-2,6-diazaspiro[3.5]nonan-6-yl)-2-(((2R,7aS)-2-fluorotetrahydro-1H-pyrrolizin-7a(5H)-yl)methoxy)quinazolin-7-yl)-7-fluorobenzo[b]thiophene-3-carbonitrile] | ≤ 500 |
| CCN(C(=O)n1cncn1)C1CCN(c2nc(OC[C@@]34CCCN3C[C@H](F)C4)nc3c(F)c(-c4ccc(F)c5sc(N)c(C#N)c45)c(Cl)cc23)C1 (stereo partly drawn) [Compound 177, N-(1-(7-(2-amino-3-cyano-7-fluorobenzo[b]thiophen-4-yl)-6-chloro-8-fluoro-2-(((2R,7aS)-2-fluorotetrahydro-1H-pyrrolizin-7a(5H)-yl)methoxy)quinazolin-4-yl)pyrrolidin-3-yl)-N-ethyl-1H-1,2,4-triazole-1-carboxamide] | ≤ 500 |
| CC(C)[C@H]1N(C(=O)n2cnc(Cl)n2)C[C@]12CC[C@H](C)N(c1nc(OC[C@@]34CCCN3C[C@H](F)C4)nc3c(F)c(-c4ccc(F)c5sc(N)c(C#N)c45)c(Cl)cc13)C2 [Compound 192, 2-amino-4-(6-chloro-4-((1R,4R,7S)-2-(3-chloro-1H-1,2,4-triazole-1-carbonyl)-1-isopropyl-7-methyl-2,6-diazaspiro[3.5]nonan-6-yl)-8-fluoro-2-(((2R,7aS)-2-fluorotetrahydro-1H-pyrrolizin-7a(5H)-yl)methoxy)quinazolin-7-yl)-7-fluorobenzo[b]thiophene-3-carbonitrile] | ≤ 500 |
| CC(C)[C@H]1N(C(=O)n2cnc(C(F)F)n2)C[C@@]12CN(c1nc(OC[C@@]34CCCN3C[C@H](F)C4)nc3c(F)c(-c4ccc(F)c5sc(N)c(C#N)c45)c(Cl)cc13)CCO2 [Compound 138, 2-amino-4-(6-chloro-4-((1R,4S)-2-(3-(difluoromethyl)-1H-1,2,4-triazole-1-carbonyl)-1-isopropyl-5-oxa-2,8-diazaspiro[3.5]nonan-8-yl)-8-fluoro-2-(((2R,7aS)-2-fluorotetrahydro-1H-pyrrolizin-7a(5H)-yl)methoxy)quinazolin-7-yl)-7-fluorobenzo[b]thiophene-3-carbonitrile] | ≤ 500 |
| COCC1([C@@H]2[C@H](CN(C)c3nc(OC[C@@]45CCCN4C[C@H](F)C5)nc4c(F)c(-c5ccc(F)c6sc(N)c(C#N)c56)c(Cl)cc34)CN2C(=O)n2cnc(F)n2)CC1 [Compound 120, 2-amino-4-(6-chloro-8-fluoro-4-((((2S,3R)-1-(3-fluoro-1H-1,2,4-triazole-1-carbonyl)-2-(1-(methoxymethyl)cyclopropyl)azetidin-3-yl)methyl)(methyl)amino)-2-(((2R,7aS)-2-fluorotetrahydro-1H-pyrrolizin-7a(5H)-yl)methoxy)quinazolin-7-yl)-7-fluorobenzo[b]thiophene-3-carbonitrile] | ≤ 500 |

Now from value to compound:

| IC50 [nM] | Structure (SMILES) |
| --- | --- |
| ≤ 500 | CC(C)[C@H]1N(C(=O)n2cnc(Cl)n2)C[C@@]12CN(c1nc(OC[C@@]34CCCN3C[C@H](F)C4)nc3c(F)c(-c4ccc(F)c5sc(N)c(C#N)c45)c(Cl)cc13)CCO2 [Compound 134, 2-amino-4-(6-chloro-4-((1R,4S)-2-(3-chloro-1H-1,2,4-triazole-1-carbonyl)-1-isopropyl-5-oxa-2,8-diazaspiro[3.5]nonan-8-yl)-8-fluoro-2-(((2R,7aS)-2-fluorotetrahydro-1H-pyrrolizin-7a(5H)-yl)methoxy)quinazolin-7-yl)-7-fluorobenzo[b]thiophene-3-carbonitrile] |
| ≤ 500 | N#Cc1c(N)sc2c(F)ccc(-c3c(Cl)cc4c(N5CCC(N(C(=O)n6cncn6)C6CC6)C5)nc(OC[C@@]56CCCN5C[C@H](F)C6)nc4c3F)c12 (stereo partly drawn) [Compound 135, N-(1-(7-(2-amino-3-cyano-7-fluorobenzo[b]thiophen-4-yl)-6-chloro-8-fluoro-2-(((2R,7aS)-2-fluorotetrahydro-1H-pyrrolizin-7a(5H)-yl)methoxy)quinazolin-4-yl)pyrrolidin-3-yl)-N-cyclopropyl-1H-1,2,4-triazole-1-carboxamide] |
| ≤ 500 | C[C@@H]1[C@H](N(C)C(=O)n2cnc(F)n2)CCN1c1nc(OC[C@@]23CCCN2C[C@H](F)C3)nc2c(F)c(-c3ccc(F)c4sc(N)c(C#N)c34)c(Cl)cc12 [Compound 111, N-((2R,3R)-1-(7-(2-amino-3-cyano-7-fluorobenzo[b]thiophen-4-yl)-6-chloro-8-fluoro-2-(((2R,7aS)-2-fluorotetrahydro-1H-pyrrolizin-7a(5H)-yl)methoxy)quinazolin-4-yl)-2-methylpyrrolidin-3-yl)-3-fluoro-N-methyl-1H-1,2,4-triazole-1-carboxamide] |
| ≤ 500 | CC(C)[C@H]1N(C(=O)n2cnc(F)n2)C[C@]12CC(CC#N)CN(c1nc(OC[C@@]34CCCN3C[C@H](F)C4)nc3c(F)c(-c4ccc(F)c5sc(N)c(C#N)c45)c(Cl)cc13)C2 (stereo partly drawn) [Compound 235, 2-amino-4-(6-chloro-4-((1R,4R)-8-(cyanomethyl)-2-(3-fluoro-1H-1,2,4-triazole-1-carbonyl)-1-isopropyl-2,6-diazaspiro[3.5]nonan-6-yl)-8-fluoro-2-(((2R,7aS)-2-fluorotetrahydro-1H-pyrrolizin-7a(5H)-yl)methoxy)quinazolin-7-yl)-7-fluorobenzo[b]thiophene-3-carbonitrile] |
